In publication PMC12067093, “Discovery and optimisation of a covalent ligand for TRIM25 and its application to targeted protein ubiquitination” (Chemical Science, 2025):
One block for each compound: values may come before it.

Experiments:
[1] = target: T1, TRIM25 PRYSPRY (Homo sapiens, UniProt Q14258); experiment: Kinetic characterisation of covalent labelling by intact protein LCMS (kinact/KI); format: binding; conditions: TRIM25 PRYSPRY 0.5 μM, 4 °C
T1 construct: His6-TEV (cleaved yes); made in house; host or cells: Sf9 insect cells (baculovirus)
T1 sequence (Q14258 435-630): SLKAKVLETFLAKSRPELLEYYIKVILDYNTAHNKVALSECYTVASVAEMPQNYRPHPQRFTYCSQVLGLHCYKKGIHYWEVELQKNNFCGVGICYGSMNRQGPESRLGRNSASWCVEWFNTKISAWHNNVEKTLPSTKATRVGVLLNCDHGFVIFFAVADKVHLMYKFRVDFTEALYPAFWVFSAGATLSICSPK
Procedure: 8 were characterised by kinetic reaction monitoring by intact protein LCMS. 0.5 µM
10 dilution series (final compound concentrations 100 µM (only for fragments 1 – 8),
12 and 1% DMSO-only control also used). Assays were performed in technical duplicates
Protein and compounds were incubated at 4 °C, in 25 mM HEPES
15 pH 7.5, 50 mM NaCl buffer, with each timepoint and replicate in a separate well.
18 measurement were saved with each reading and used for kinetic calculations.
19 protein masses were recorded, deconvoluted and percentage labelling values
20 extracted in the same way as described above. Percentage labelling values were
21 plotted against time in Prism 10 (GraphPad), and curves fitted separately for each
22 replicate to a one-phase association model with constraints Y0 = 0, and plateau = 100.
23 Observed rate constants (k obs, h-1, generated in Prism 10 as K values) were then
26 of two or three replicates to a straight line model with constraint Y-intercept = 0.
27 gradient of these plots (converted from µM-1h-1 to M-1s-1) gives the pseudo-first order
28 rate parameter, kinact/K I (M-1s-1), for each compound. kinact/KI values are reported as
29 mean ± SD of the slope based on a linear fit model, n = 2 or 3. For n = 2 data, errors
30 are reported as standard errors of fit, as calculated in Prism 10. For n = 3 data, errors […]

[2] = target: T1, TRIM25 PRYSPRY; experiment: Intact protein LCMS covalent labelling of recombinant TRIM25 PRYSPRY; format: binding; conditions: 4 °C, 24 h
Procedure: 1 resin (ThermoFisher Scientific, 89964), eluted in 100 mM HEPES pH 7, 500 mM NaCl,
2 300 mM Imidazole, 5% glycerol, 1 mM TCEP, and stored at -80 °C.
5 into a pET49 vector with a His6-HRV-3C (Human Rhinovirus) tag and expressed in
6 BL21 E.coli cells (Agilent Technologies; 230132), with induction at 18 °C overnight by
7 addition of isopropyl β-D-1-thiogalactopyranoside (0.5 mM). Cells were harvested by
8 centrifugation at 4000 rpm in a Beckman J6-M1 rotor for 30 min at 4 °C, the
9 supernatant was discarded and cell pellets were either immediately lysed, or stored at
10 -80°C. The protein was purified via His6-capture on HisPurTM Ni-NTA resin in buffer
11 50 mM HEPES pH 7.5, 300 mM NaCl, 0.5 mM TCEP, 20 mM imidazole, washed
12 extensively with both high salt buffer (50 mM HEPES pH 7.5, 1 M NaCl, 0.5 mM TCEP,
13 20 mM imidazole) and wash buffer (50 mM HEPES pH 7.5, 300 mM NaCl, 0.5 mM
14 TCEP, 20 mM imidazole) before elution in buffer 50 mM HEPES pH 7.5, 300 mM NaCl,
15 0.5 mM TCEP, 500 mM imidazole, and tag cleavage with HRV-3C protease. Cleaved
16 protein was further purified by ion exchange chromatography and size exclusion
17 chromatography into 20 mM HEPES pH 7.5, 150 mM NaCl, 0.5 mM TCEP, and stored
21 For the original chloroacetamide fragment screen, 0.25 μM TRIM25 PRYSPRY or
23 25 mM HEPES pH 7.5, 50 mM NaCl buffer. For intact protein liquid chromatography
24 mass spectrometry (LCMS) kinetic characterisation, 0.5 μM TRIM25 PRYSPRY was
25 used. For selectivity testing with recombinant ubiquitin system protein panel, 10 µM
27 7.5, 50 mM NaCl buffer. Samples were then diluted to 0.5 µM for TRIM25 PRYSPRY,
28 TRIM21 PRYSPRY, OTUD7B OTU, ZRANB1 OTU or 1 µM for TRIM2 NHL, UBCH5B,
29 UBC13K92A, UEV1A, OTUD4 OTU, before injection into the LCMS. For TRIM25
30 PRYSPRY mutants, and for labelling of heterobifunctional compounds, 10 µM protein
32 mM NaCl buffer, and samples were diluted to 1 µM protein before injection into the […]

[3] = buffer; cited from earlier work
[4] = fragment screen: fragment 50 μM, TRIM25 PRYSPRY […]

Structure (SMILES): CCN1C(=O)C2CN(C(=O)CCl)CCN2C1=O (stereo not shown) [Fragment 2]
TRIM25 PRYSPRY labelling (%) [2, 4]: 50%

Structure (SMILES): C=CC(=O)Nc1cc(Nc2nccc(-c3cn(C)c4ccccc34)n2)c(OC)cc1N(C)CCN(C)C [osimertinib]
GSH t1/2 [3]: 1.3 h

Structure (SMILES): O=C(CCl)N1CCCN(C(=O)c2ccc(Cl)cc2)CC1 [Fragment 1]
TRIM25 PRYSPRY labelling (%) [2, 4]: 55%

Second part, the compound after the results:

kinact/KI ([1]; eight timepoints across 24 h, n = 2, mean ± SE of fit): 0.13 ± 0.01 M⁻¹ s⁻¹ | TRIM25 PRYSPRY labelling (%) [2, 4]: 39%
Structure (SMILES): NC(=O)C1CCCCN1C(=O)CCl (stereo not shown) [Fragment 3]

kinact/KI ([1]; purified compounds, mean ± SD, n = 3): 0.26 ± 0.01 M⁻¹ s⁻¹ | TRIM25 PRYSPRY labelling (%) ([2]; purified compound 50 μM, TRIM25 PRYSPRY 10 μM): 51%
Structure (SMILES): N#Cc1cnccc1NC(=O)C1CCCN(C(=O)CCl)C1 (stereo not shown) [Compound 12]
